Reference: patent US20110275711A1, “METHOD FOR TREATING MACULAR EDEMA” (R-TECH UENO, LTD., priority 2010, published 2011)

Columns and labels:
[1] = tested on: rhVEGF induced retinal vascular leakage; test: Inhibition of rhVEGF induced retinal vascular leakage in rabbit model (vitreous fluorescein leakage); format: in vivo, GD79B rabbit (pigmented); conditions: 50 μl test composition intravitreal just after rhVEGF 500 ng; for Fluorescein Leakage (AUC) right eye (treated), Mean: measured 48 h after rhVEGF, 1 h after sodium fluorescein i.v., n=8; for Inhibition of fluorescein leakage (vs. control): AUC ratio compared with vehicle control group; for ratio of AUC right/left, Mean ± S.D.: treated eye/untreated eye
Text: The effect of the fatty acid derivative to inhibit retinal vascular leakage in rabbit model.
Animals: GD79B rabbit (pigmented). Each group contains 8 animals.
1) 0.15 w/v % isopropyl unoprostone: formulation example 1 2) 4 w/v % triamcinolone acetonide: Kenacort® Retard (Bristol-Myers Squibb Japan, Tokyo, JP) (positive control) 3) vehicle of isopropyl unoprostone (composition comprising the ingredients of formulation example 1 except for isopropyl unoprostone) (control)
Retinal vascular leakage model animals were prepared. Recombinant human vascular endothelial cell growth factor (rhVEGF) 500 ng (in 50 μl) was injected intravitreally in the right eye of animals. Just after the injection of rhVEGE, 50 μl of test composition 1 or 2 was injected intraviterally in the right eye of the animal. The left eyes were remain untreated (no rhVEGE nor test compositions).
Forty seven (47) hours after the rhVEGF injection, 50 mg/kg of sodium fluorescein (10 w/v % in physiological saline) was injected to the animals via auricular veins. One (1) hour after the injection of sodium fluorescein, the fluorescence intensities in the vitreous body of the treated and untreated eyes were measured by using a corneal spectrophotometer. Based on the measured value, area under the curve (AUC) of the fluorescence intensity that reflects the leakage and the ratio of AUC (treated eye/untreated eye, i.e. right eye/left eye) were calculated. The AUC ratio of isopropyl unoprostone and triamcinolone acetonide administered group were compared to the AUC ratio of the control group to give the inhibition (%) of retinal vascular leakage.

macular edema = conditions: package insert of Xalatan; cited from earlier work

SMILES | Fluorescein Leakage (AUC) right eye (treated), Mean [1] | Inhibition of fluorescein leakage (vs. control) [1] [%] | ratio of AUC right/left, Mean ± S.D. [1] | macular edema as side effect (macular edema)
CCCCCCCC(=O)CC[C@@H]1[C@@H](C/C=C\CCCC(=O)OC(C)C)[C@@H](O)C[C@H]1O [isopropyl unoprostone, (+)-isopropyl (Z)-7-[(1R,2R,3R,5S)-3,5-dihydroxy-2-(3-oxodecyl)cyclopentyl]hept-5-enoate] | 10998.4 | 60 | 3.43 ± 4.01 | 
CC(C)OC(=O)CCC/C=C\C[C@@H]1[C@@H](CC[C@@H](O)CCc2ccccc2)[C@H](O)C[C@@H]1O [latanoprost, (+)-Isopropyl (Z)-7-[(1R,2R,3R,5S)-3,5-dihydroxy-2-[(3R)-3-hydroxy-5-phenylpentyl]cyclopentyl]-5-heptenoate] |  |  |  | causes macular edema as a side effect
CC1(C)O[C@@H]2C[C@H]3[C@@H]4CCC5=CC(=O)C=C[C@]5(C)[C@@]4(F)[C@@H](O)C[C@]3(C)[C@]2(C(=O)CO)O1 [triamcinolone acetonide] | 3715.6 | 89 | 0.98 ± 0.44 | 
